The data set is described as follows: HILIC, HILICON iHILIC-(P) Classic, HILIC, PEEK, 50 × 2.1 mm, 5 µm, 45 °C, 0.12 mL/min, estimated dead time 0.92 min; A: water + 20 mM ammonium carbonate; B: acetonitrile; gradient (min/%B) 0/90 1/90 21/20 21.5/20 26.5/20 27.5/90 35/90. Conditions: stereoisomer not certain.

For the compound `NC(Cc1ccccc1)C(=O)O` (stereo not drawn) [Phenylalanine], the LC retention time is 4.97 min.

As for `O=P(O)(O)OCC(O)CO` (stereo not drawn) [Glycerol-3-phosphate], the LC retention time was 10.9 min.

For the compound `NC(=O)c1ccc[n+](C2OC(COP(=O)([O-])O)C(O)C2O)c1` (stereo not drawn) [NMN], the LC retention time was 9.43 min.

In the case of `O=P(O)(O)OCC1OC(O)(COP(=O)(O)O)C(O)C1O` (stereo not drawn) [Fructose-1,6-bisphosphate], the LC retention time is 16.3 min.

As for `CC(O)C(N)C(=O)O` (stereo not drawn) [Threonine], the LC retention time is 8.21 min.

Regarding `NC(CCC(=O)NC(CSSCC(NC(=O)CCC(N)C(=O)O)C(=O)NCC(=O)O)C(=O)NCC(=O)O)C(=O)O` (stereo not drawn) [GSSG], the LC retention time is 15.3 min.

`NCCCC(N)C(=O)O` (stereo not drawn) [Ornithine]: the LC retention time was 18.1 min.

Regarding `NC(CCC(=O)O)C(=O)O` (stereo not drawn) [Glutamic acid], the LC retention time was 9.69 min.

`O=C(O)CCCCC1SCC2NC(=O)NC21` (stereo not drawn) [Biotin]: the LC retention time is 3.35 min.

With `Nc1nc2c(ncn2C2OC(COP(=O)(O)O)C(O)C2O)c(=O)[nH]1` (stereo not drawn) [GMP], the LC retention time is 14.2 min.

For `O=C1OC(C(O)CO)C(O)=C1O` (stereo not drawn) [Ascorbic Acid], the LC retention time is 9.37 min.

Turning to `CC(O)C(=O)O` (stereo not drawn) [Lactic Acid], the LC retention time was 2.81 min.

On to `O=C(O)C1CCCN1` (stereo not drawn) [Proline], for which the LC retention time was 6.81 min.

Consider `Nc1ncnc2c1ncn2C1OC(COP(=O)(O)OP(=O)(O)O)C(O)C1O` (stereo not drawn) [ADP], for which the LC retention time was 12.2 min.

Take `CC(C)CC(N)C(=O)O` (stereo not drawn) [Leucine]: the LC retention time is 5.45 min.

As to `Nc1ccn(C2OC(COP(=O)(O)O)C(O)C2O)c(=O)n1` (stereo not drawn) [CMP], the LC retention time was 10.9 min.

As for `Nc1ncnc2c1ncn2C1OC(COP(=O)(O)OP(=O)(O)OP(=O)(O)O)C(O)C1O` (stereo not drawn) [ATP], the LC retention time is 13.6 min.

Take `NC(CSSCC(N)C(=O)O)C(=O)O` (stereo not drawn) [Cystine]: the LC retention time was 11.6 min.

As for `NC(=O)c1ccc[n+](C2OC(COP(=O)(O)OP(=O)(O)OCC3OC(n4cnc5c(N)ncnc54)C(O)C3O)C(O)C2O)c1` (stereo not drawn) [NAD], the LC retention time was 8.93 min.

On to `CC(=O)NC1C(OP(=O)(O)OP(=O)(O)OCC2OC(n3ccc(=O)[nH]c3=O)C(O)C2O)OC(CO)C(O)C1O` (stereo not drawn) [UDP-GlcNAc], for which the LC retention time is 11.7 min.

Consider `Nc1ncnc2c1ncn2C1OC(CO)C(O)C1O` (stereo not drawn) [Adenosine], for which the LC retention time was 3.57 min.

Regarding `O=c1ccn(C2OC(COP(=O)(O)O)C(O)C2O)c(=O)[nH]1` (stereo not drawn) [UMP], the LC retention time is 9.52 min.

Turning to `O=c1ccn(C2OC(COP(=O)(O)OP(=O)(O)O)C(O)C2O)c(=O)[nH]1` (stereo not drawn) [UDP], the LC retention time is 12.2 min.

In the case of `NC(=O)CCC(N)C(=O)O` (stereo not drawn) [Glutamine], the LC retention time is 8.36 min.

With `NCCCCC(N)C(=O)O` (stereo not drawn) [Lysine], the LC retention time is 18.8 min.

Turning to `Nc1ncnc2nc[nH]c12` [Adenine], the LC retention time is 3.42 min.

As to `Cc1ncc(C[n+]2csc(CCO)c2C)c(N)n1` [Thiamine], the LC retention time is 13 min.

As for `NC(CO)C(=O)O` (stereo not drawn) [Serine], the LC retention time was 8.59 min.

For the compound `Nc1ccn(C2OC(COP(=O)(O)OP(=O)(O)O)C(O)C2O)c(=O)n1` (stereo not drawn) [CDP], the LC retention time was 13.2 min.

With `NC(CCC(=O)NC(CS)C(=O)NCC(=O)O)C(=O)O` (stereo not drawn) [GSH], the LC retention time is 8.5 min.

On to `O=c1ccn(C2OC(COP(=O)(O)OP(=O)(O)OP(=O)(O)O)C(O)C2O)c(=O)[nH]1` (stereo not drawn) [UTP], for which the LC retention time was 14.3 min.

For the compound `Nc1nc2c(ncn2C2OC(COP(=O)(O)OP(=O)(O)O)C(O)C2O)c(=O)[nH]1` (stereo not drawn) [GDP], the LC retention time was 15.2 min.

Consider `CSCCC(N)C(=O)O` (stereo not drawn) [Methionine], for which the LC retention time was 5.91 min.

`O=C(O)CC(O)C(=O)O` (stereo not drawn) [Malic Acid]: the LC retention time is 13.1 min.

As to `Nc1nc2c(ncn2C2OC(COP(=O)(O)OP(=O)(O)OP(=O)(O)O)C(O)C2O)c(=O)[nH]1` (stereo not drawn) [GTP], the LC retention time is 17.1 min.

Take `C=C(OP(=O)(O)O)C(=O)O` [PEP]: the LC retention time is 13.7 min.

For the compound `NC(=O)C1=CN(C2OC(COP(=O)(O)OP(=O)(O)OCC3OC(n4cnc5c(N)ncnc54)C(O)C3O)C(O)C2O)C=CC1` (stereo not drawn) [NADH], the LC retention time is 9.33 min.

Turning to `NC(=O)C1=CN(C2OC(COP(=O)(O)OP(=O)(O)OCC3OC(n4cnc5c(N)ncnc54)C(OP(=O)(O)O)C3O)C(O)C2O)C=CC1` (stereo not drawn) [NADPH], the LC retention time is 16.8 min.

In the case of `NC(=O)c1ccc[n+](C2OC(COP(=O)(O)OP(=O)(O)OCC3OC(n4cnc5c(N)ncnc54)C(OP(=O)(O)O)C3O)C(O)C2O)c1` (stereo not drawn) [NADP], the LC retention time is 13.5 min.

For the compound `Nc1ncnc2c1ncn2C1OC(COP(=O)(O)O)C(O)C1O` (stereo not drawn) [AMP], the LC retention time was 8.49 min.

In the case of `NC(Cc1c[nH]c2ccccc12)C(=O)O` (stereo not drawn) [Tryptophan], the LC retention time is 6.18 min.

For the compound `CC(=O)NC(CC(=O)O)C(=O)O` (stereo not drawn) [N-Acetylaspartic acid], the LC retention time was 9.96 min.

Turning to `O=C(O)CC(C(=O)O)C(O)C(=O)O` (stereo not drawn) [Isocitric acid], the LC retention time is 15.9 min.

Consider `NC(=O)CC(N)C(=O)O` (stereo not drawn) [Asparagine], for which the LC retention time is 10.8 min.

For `O=C(O)CC(=O)O` [Malonic Acid], the LC retention time was 9.39 min.

As for `O=C(O)CC(O)(CC(=O)O)C(=O)O` [Citric acid], the LC retention time is 16.4 min.

As to `O=C(CO)COP(=O)(O)O` [Triose phosphate], the LC retention time is 11.3 min.

For the compound `Nc1ccn(C2OC(CO)C(O)C2O)c(=O)n1` (stereo not drawn) [Cytidine], the LC retention time is 5.92 min.

On to `O=C(O)c1cccnc1` [Nicotinic acid], for which the LC retention time was 1.66 min.

In the case of `NC(Cc1ccc(O)cc1)C(=O)O` (stereo not drawn) [Tyrosine], the LC retention time was 6.98 min.

As for `CC(=O)SCCNC(=O)CCNC(=O)C(O)C(C)(C)COP(=O)(O)OP(=O)(O)OCC1OC(n2cnc3c(N)ncnc32)C(O)C1OP(=O)(O)O` (stereo not drawn) [Acetyl-CoA], the LC retention time was 8.69 min.

In the case of `O=C(O)C1(O)CC(O)C(O)C(O)C1` (stereo not drawn) [Quinic Acid], the LC retention time was 6.43 min.

With `CCC(C)C(N)C(=O)O` (stereo not drawn) [Isoleucine], the LC retention time is 5.72 min.

On to `O=C(O)C(CO)OP(=O)(O)O` (stereo not drawn) [Phosphoglyceric acid A], for which the LC retention time was 13.5 min.

As for `O=C(O)CCC(=O)O` [Succinic Acid], the LC retention time is 11.8 min.

As for `Nc1nc2c(ncn2C2OC(CO)C(O)C2O)c(=O)[nH]1` (stereo not drawn) [Guanosine], the LC retention time is 6.69 min.

Turning to `Nc1nc2ncc(CNc3ccc(C(=O)NC(CCC(=O)O)C(=O)O)cc3)nc2c(=O)[nH]1` (stereo not drawn) [Folic Acid], the LC retention time is 14.3 min.

On to `CC(C)C(N)C(=O)O` (stereo not drawn) [Valine], for which the LC retention time was 6.71 min.
